# Patent US10406207B2, “Peptide conjugates of GLP-1 receptor agonists and gastrin and their use” (priority 2010, dated 2019)
# pEC50: −log10 of the molar value. Read-outs that look alike come from different tables or passages of the source. Square brackets hold non-standard residues; d marks the D form. Peptide text beside a SMILES is read from it. Orn = NCCC[C@H](N)C(=O)O; AEEA = NCCOCCOCC(=O)O
# Legend:
# human GLP-1 R = molecular target: T1, human GLP-1 R (Homo sapiens, UniProt P43220); assay: Human GLP-1 receptor efficacy assay (cAMP induction, FlashPlate); format: cell-based; conditions: read-out: hGLP-1 R EC50
# T1 construct: expressed in transfected cells
# T1 sequence (P43220 24-463): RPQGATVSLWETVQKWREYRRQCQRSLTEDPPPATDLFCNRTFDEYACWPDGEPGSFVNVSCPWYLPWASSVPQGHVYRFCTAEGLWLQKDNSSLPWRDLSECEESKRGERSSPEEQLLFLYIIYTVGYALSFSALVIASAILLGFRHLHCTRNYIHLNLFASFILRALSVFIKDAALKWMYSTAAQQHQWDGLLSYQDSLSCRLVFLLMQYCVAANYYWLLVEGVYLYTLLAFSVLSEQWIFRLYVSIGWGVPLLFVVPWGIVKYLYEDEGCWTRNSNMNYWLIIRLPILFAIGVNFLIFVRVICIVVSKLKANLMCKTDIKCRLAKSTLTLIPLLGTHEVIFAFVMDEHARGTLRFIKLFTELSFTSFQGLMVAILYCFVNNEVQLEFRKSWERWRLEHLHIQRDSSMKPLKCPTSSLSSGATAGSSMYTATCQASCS
# Protocol: On the day of analysis, growth medium was removed and the cells were washed once with 200 μl Tyrode buffer [Tyrode's Salts (9.6 g/l), 10 mM HEPES, pH 7.4]. […] The reaction was stopped by addition of 25 μl 0.5 M HCl and incubated on ice for 60 min.
# human CCK-B R = molecular target: T2, human CCK-B R (Homo sapiens, UniProt P32239); assay: Human CCK-B receptor efficacy assay (AlphaScreen SureFire p-ERK); format: cell-based; conditions: read-out: hCCK-B R EC50
# T2 construct: expressed in transfected cells
# T2 sequence (P32239 1-447): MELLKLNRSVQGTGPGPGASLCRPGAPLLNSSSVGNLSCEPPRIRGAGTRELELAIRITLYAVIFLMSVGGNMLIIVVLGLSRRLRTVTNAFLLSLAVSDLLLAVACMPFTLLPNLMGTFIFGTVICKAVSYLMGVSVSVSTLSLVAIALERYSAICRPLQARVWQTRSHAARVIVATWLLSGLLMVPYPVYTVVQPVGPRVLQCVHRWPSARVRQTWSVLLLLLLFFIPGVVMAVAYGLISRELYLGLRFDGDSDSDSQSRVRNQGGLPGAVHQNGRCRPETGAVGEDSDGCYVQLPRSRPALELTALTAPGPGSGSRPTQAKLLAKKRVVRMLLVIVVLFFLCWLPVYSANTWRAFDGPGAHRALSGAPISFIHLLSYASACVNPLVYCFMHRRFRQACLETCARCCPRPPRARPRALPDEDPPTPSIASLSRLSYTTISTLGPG
pEC50 (human GLP-1 R; Table 2),pEC50 (human CCK-B R; Table 2),pEC50 (human GLP-1 R; Table 3),pEC50 (human CCK-B R; Table 3),Compound
10.04,7.27,–,–,"CC[C@H](C)[C@H](NC(=O)[C@H](Cc1ccccc1)NC(=O)[C@H](CC(C)C)NC(=O)[C@H](CCCNC(=N)N)NC(=O)[C@@H](NC(=O)[C@H](C)NC(=O)[C@H](CCC(=O)O)NC(=O)[C@H](CCC(=O)O)NC(=O)[C@H](CCC(=O)O)NC(=O)[C@H](CC(C)C)NC(=O)[C@H](Cc1ccc(O)cc1)NC(=O)[C@H](CCCCN)NC(=O)[C@H](CO)NC(=O)[C@H](CC(C)C)NC(=O)[C@H](CCC(=O)O)NC(=O)[C@H](CO)NC(=O)[C@@H](NC(=O)[C@H](Cc1ccccc1)NC(=O)[C@@H](NC(=O)CNC(=O)[C@H](CCC(=O)O)NC(=O)CNC(=O)[C@@H](N)Cc1c[nH]cn1)[C@@H](C)O)[C@@H](C)O)C(C)C)C(=O)N[C@@H](CCC(=O)O)C(=O)N[C@@H](Cc1ccccc1)C(=O)N[C@@H](CC(C)C)C(=O)N[C@@H](CCCCN)C(=O)NCCOCCOCC(=O)N[C@@H](Cc1ccc(O)cc1)C(=O)NCC(=O)N[C@@H](Cc1c[nH]c2ccccc12)C(=O)N[C@@H](CC(C)C)C(=O)N[C@@H](CC(=O)O)C(=O)N[C@@H](Cc1ccccc1)C(N)=O [Compound 102, [Glu9,Leu14,Phe25,Tyr13]Exendin-4(1-27)-Peg3-[Leu4]Gastrin6]"
10.42,7.82,–,–,"CC[C@H](C)[C@H](NC(=O)[C@H](Cc1ccccc1)NC(=O)[C@H](CC(C)C)NC(=O)[C@H](CCCN)NC(=O)[C@@H](NC(=O)[C@H](C)NC(=O)[C@H](CCC(=O)O)NC(=O)[C@H](CCC(=O)O)NC(=O)[C@H](CCC(=O)O)NC(=O)[C@H](CCSC)NC(=O)[C@H](CCC(N)=O)NC(=O)[C@H](CCCCN)NC(=O)[C@H](CO)NC(=O)[C@H](CC(C)C)NC(=O)[C@H](CC(=O)O)NC(=O)[C@H](CO)NC(=O)[C@@H](NC(=O)[C@H](Cc1ccccc1)NC(=O)[C@@H](NC(=O)CNC(=O)[C@H](CCC(=O)O)NC(=O)CNC(=O)[C@@H](N)Cc1c[nH]cn1)[C@@H](C)O)[C@@H](C)O)C(C)C)C(=O)N[C@@H](CCC(=O)O)C(=O)N[C@@H](Cc1c[nH]c2ccccc12)C(=O)N[C@@H](CC(C)C)C(=O)N[C@@H](CCCCN)C(=O)N[C@@H](CC(N)=O)C(=O)NCCOCCOCC(=O)NCCOCCOCC(=O)N[C@@H](Cc1ccc(O)cc1)C(=O)NCC(=O)N[C@@H](Cc1c[nH]c2ccccc12)C(=O)N[C@@H](CC(C)C)C(=O)N[C@@H](CC(=O)O)C(=O)N[C@@H](Cc1ccccc1)C(N)=O [Compound 66, [Orn20]Exendin-4(1-28)-Peg3-Peg3-[Leu4]Gastrin6] (H-HGEGTFTSDLSKQMEEEAV[Orn]LFIEWLKN[AEEA][AEEA]YGWLDF-NH2)"
9.77,7.59,–,–,"CC[C@H](C)[C@H](NC(=O)[C@H](Cc1ccccc1)NC(=O)[C@H](CC(C)C)NC(=O)[C@H](CCCNC(=N)N)NC(=O)[C@@H](NC(=O)[C@H](C)NC(=O)[C@H](CCC(=O)O)NC(=O)[C@H](CCCCN)NC(=O)[C@H](CCC(=O)O)NC(=O)[C@H](CC(C)C)NC(=O)[C@H](Cc1ccc(O)cc1)NC(=O)[C@H](CCCNC(=N)N)NC(=O)[C@H](CO)NC(=O)[C@H](CC(C)C)NC(=O)[C@H](CC(=O)O)NC(=O)[C@H](CO)NC(=O)[C@@H](NC(=O)[C@H](Cc1ccccc1)NC(=O)[C@@H](NC(=O)CNC(=O)[C@H](CCC(=O)O)NC(=O)CNC(=O)[C@@H](N)Cc1c[nH]cn1)[C@@H](C)O)[C@@H](C)O)C(C)C)C(=O)N[C@@H](CCC(=O)O)C(=O)N[C@@H](Cc1ccccc1)C(=O)N[C@@H](CC(C)C)C(=O)N[C@@H](CCCNC(=N)N)C(=O)NCCOCCOCC(=O)N[C@@H](Cc1ccc(O)cc1)C(=O)NCC(=O)N[C@@H](Cc1c[nH]c2ccccc12)C(=O)N[C@@H](CC(C)C)C(=O)N[C@@H](CC(=O)O)C(=O)N[C@@H](Cc1ccccc1)C(N)=O [Compound 92, [Arg12,27,Leu14,Lys16,Phe25,Tyr13]Exendin-4(1-27)-Peg3-[Leu4]Gastrin6] (H-HGEGTFTSDLSRYLEKEAVRLFIEFLR[AEEA]YGWLDF-NH2)"
–,–,10.37,7.38,"CC[C@H](C)[C@H](NC(=O)[C@H](Cc1ccccc1)NC(=O)[C@H](CCC(=O)O)NC(=O)[C@H](CCCCN)NC(=O)[C@H](C)NC(=O)[C@H](C)NC(=O)[C@H](CCC(N)=O)NC(=O)CNC(=O)[C@H](CCC(=O)O)NC(=O)[C@H](CC(C)C)NC(=O)[C@H](Cc1ccc(O)cc1)NC(=O)[C@H](CO)NC(=O)[C@H](CO)NC(=O)[C@@H](NC(=O)[C@H](CC(=O)O)NC(=O)[C@H](CO)NC(=O)[C@@H](NC(=O)[C@H](Cc1ccccc1)NC(=O)[C@@H](NC(=O)CNC(=O)[C@H](CCC(=O)O)NC(=O)C(C)(C)NC(=O)[C@@H](N)Cc1c[nH]cn1)[C@@H](C)O)[C@@H](C)O)C(C)C)C(=O)N[C@@H](C)C(=O)N[C@@H](Cc1c[nH]c2ccccc12)C(=O)N[C@@H](CC(C)C)C(=O)N[C@H](C(=O)N[C@@H](CCCNC(=N)N)C(=O)NCC(=O)N[C@@H](CCCNC(=N)N)C(=O)NCC(=O)NCCOCCOCC(=O)NCCOCCOCC(=O)N[C@@H](Cc1ccc(O)cc1)C(=O)NCC(=O)N[C@@H](Cc1c[nH]c2ccccc12)C(=O)N[C@@H](CC(C)C)C(=O)N[C@@H](CC(=O)O)C(=O)N[C@@H](Cc1ccccc1)C(N)=O)C(C)C [Compound 112, [Aib8,Arg34]GLP-1(7-37)-Peg3-Peg3-[Leu4]Gastrin6]"
10.34,7.70,–,–,"CC[C@H](C)[C@H](NC(=O)[C@H](Cc1ccccc1)NC(=O)[C@H](CC(C)C)NC(=O)[C@H](CCCNC(=N)N)NC(=O)[C@@H](NC(=O)[C@H](C)NC(=O)[C@H](CCC(=O)O)NC(=O)[C@H](CCC(=O)O)NC(=O)[C@H](CCC(=O)O)NC(=O)[C@H](CC(C)C)NC(=O)[C@H](Cc1ccc(O)cc1)NC(=O)[C@H](CCCCN)NC(=O)[C@H](CO)NC(=O)[C@H](CC(C)C)NC(=O)[C@H](CCC(=O)O)NC(=O)[C@H](CO)NC(=O)[C@@H](NC(=O)[C@H](Cc1ccccc1)NC(=O)[C@@H](NC(=O)CNC(=O)[C@H](CCC(=O)O)NC(=O)CNC(=O)[C@@H](N)Cc1c[nH]cn1)[C@@H](C)O)[C@@H](C)O)C(C)C)C(=O)N[C@@H](CCC(=O)O)C(=O)N[C@@H](Cc1ccccc1)C(=O)N[C@@H](CC(C)C)C(=O)N[C@@H](CCCCN)C(=O)NCCOCCOCC(=O)NCCOCCOCC(=O)N[C@@H](Cc1ccc(O)cc1)C(=O)NCC(=O)N[C@@H](Cc1c[nH]c2ccccc12)C(=O)N[C@@H](CC(C)C)C(=O)N[C@@H](CC(=O)O)C(=O)N[C@@H](Cc1ccccc1)C(N)=O [Compound 88, [Glu9,Leu14,Phe25,Tyr13]Exendin-4(1-27)-Peg3-Peg3-[Leu4]Gastrin6] (H-HGEGTFTSELSKYLEEEAVRLFIEFLK[AEEA][AEEA]YGWLDF-NH2)"
10.39,8.07,–,–,"CC[C@H](C)[C@H](NC(=O)[C@H](Cc1ccccc1)NC(=O)[C@H](CC(C)C)NC(=O)[C@H](CCCNC(=N)N)NC(=O)[C@@H](NC(=O)[C@H](C)NC(=O)[C@H](CCC(=O)O)NC(=O)[C@H](CCC(=O)O)NC(=O)[C@H](CCC(=O)O)NC(=O)[C@H](CCSC)NC(=O)[C@H](CCC(N)=O)NC(=O)[C@H](CCCCN)NC(=O)[C@H](CO)NC(=O)[C@H](CC(C)C)NC(=O)[C@H](CC(=O)O)NC(=O)[C@H](CO)NC(=O)[C@@H](NC(=O)[C@H](Cc1ccccc1)NC(=O)[C@@H](NC(=O)CNC(=O)[C@H](CCC(=O)O)NC(=O)CNC(=O)[C@@H](N)Cc1c[nH]cn1)[C@@H](C)O)[C@@H](C)O)C(C)C)C(=O)N[C@@H](CCC(=O)O)C(=O)N[C@@H](Cc1ccccc1)C(=O)N[C@@H](CC(C)C)C(=O)N[C@@H](CCCCN)C(=O)N[C@@H](CC(N)=O)C(=O)NCCOCCOCC(=O)NCCOCCOCC(=O)N[C@@H](Cc1ccc(O)cc1)C(=O)NCC(=O)N[C@@H](Cc1c[nH]c2ccccc12)C(=O)N[C@@H](CC(C)C)C(=O)N[C@@H](CC(=O)O)C(=O)N[C@@H](Cc1ccccc1)C(N)=O [Compound 63, [Phe25]Exendin-4(1-28)-Peg3-Peg3-[Leu4]Gastrin6]"
–,–,10.06,7.23,"CCCCCCCCCCCCCCCC(=O)N[C@@H](CCC(=O)NCCCC[C@H](NC(=O)[C@H](C)NC(=O)[C@H](C)NC(=O)[C@H](CCC(N)=O)NC(=O)CNC(=O)[C@H](CCC(=O)O)NC(=O)[C@H](CC(C)C)NC(=O)[C@H](Cc1ccc(O)cc1)NC(=O)[C@H](CO)NC(=O)[C@H](CO)NC(=O)[C@@H](NC(=O)[C@H](CC(=O)O)NC(=O)[C@H](CO)NC(=O)[C@@H](NC(=O)[C@H](Cc1ccccc1)NC(=O)[C@@H](NC(=O)CNC(=O)[C@H](CCC(=O)O)NC(=O)C(C)(C)NC(=O)[C@@H](N)Cc1c[nH]cn1)[C@@H](C)O)[C@@H](C)O)C(C)C)C(=O)N[C@@H](CCC(=O)O)C(=O)N[C@@H](Cc1ccccc1)C(=O)N[C@H](C(=O)N[C@@H](C)C(=O)N[C@@H](Cc1c[nH]c2ccccc12)C(=O)N[C@@H](CC(C)C)C(=O)N[C@H](C(=O)N[C@@H](CCCNC(=N)N)C(=O)NCC(=O)N[C@@H](CCCNC(=N)N)C(=O)NCC(=O)NCCOCCOCC(=O)NCCOCCOCC(=O)N[C@@H](Cc1ccc(O)cc1)C(=O)NCC(=O)N[C@@H](Cc1c[nH]c2ccccc12)C(=O)N[C@@H](CC(C)C)C(=O)N[C@@H](CC(=O)O)C(=O)N[C@@H](Cc1ccccc1)C(N)=O)C(C)C)[C@@H](C)CC)C(=O)O [Compound 111, [Aib8,Arg34,Lys(Hexadecanoyl-isoGlu)26]GLP-1(7-37)-Peg3-Peg3-[Leu4]Gastrin6]"
